Results on one molecule are retold here after patent US20260007666A1 (INAYA THERAPEUTICS, INC., priority 2022, published 2026).

A short description of the series: Rat pharmacokinetics, IV imatinib mesylate vs IT imatinib free base/cyclodextrin (Example 9). In kind it is in vivo, Sprague Dawley rats. Conditions: IV data, 60 min collection period. How it is done:
Lung tissue and blood were collected for analysis.
Experimental Design and Execution: In brief, after the animals were transferred to study, all animals were randomly assigned to treatment groups per the study design below. Animals were treated either via intravenous (IV) administration of formulation R1, or via intratracheal (IT) administration for formulation R2 of the test article.
Averages for each time point are reported for groups/time points that have a minimum of 2 animals.
The Therapeutic Advantage (Rd) in Table 8 was calculated using the following equation: […]

Consider `Cc1ccc(NC(=O)c2ccc(CN3CCN(C)CC3)cc2)cc1Nc1nccc(-c2cccnc2)n1` [imatinib free base, imatinib], for which the “tissue distribution lung vs plasma” value is listed as “preferentially accumulates in the lung tissue”.
